Laboratory results as given in EP1600153A1, “Slow-release pharmaceutical composition allowing to monitor drug release” (Deutsches Krebsforschungszentrum Stiftung des öffentlichen …, priority 2004, dated 2005).

What was measured:
[1] = Subcutaneous injection of Gd-DTPA solution (control): 1H MR imaging at the site of injection; type: in vivo, rat
Description: Subcutaneous injection of 0.5 mcmol Gd-DTPA (along with 34 mcmol FLAMP), as a 1 ml-solution in an adult male rat (left flank). Transversal 1H MR images (slice thickness 2 mm) from the region of the injection, taken 85 min after injection. Images numbered in caudal-cranial direction.
(§1) A solution of the drug and the contrast agent was injected subcutaneously, followed by local MRS and MRI monitoring as in Example 2, in order to test whether either agent might be locally detectable even after release from the depot preparation. The injection volume (1 ml) and the amount of drug (FLAMP, 34 mcmoles) were the same as in Example 2 while the amount of contrast agent was doubled (Gd-DTPA, 0.5 mcmol).

[2] = Subcutaneous liposome depot preparation in rats: amount of FLAMP at the site of injection by 19F-MRS in vivo; design: species or system Wistar rats
Description: 2 ml aqua bidest., 1,7 µl Magnevist™ and 200 mg Phospholipon™ 90H were added to a bottle for injection of Fludara™. The mixture was mixed by hand for 20 min. at room temperature. Then, the mixture was subjected to 6 cycles of vortexing for 2 min. and placing in a water bath at 64°C for 3 min.. Subsequently, the mixture was subjected to 6 cycles of holding in liquid nitrogen for 3 min. and placing in a water bath at 64°C for 6 min. Finally, the mixture was washed for four times with each of 10 ml phosphate buffer. After each washing step, the mixture was centrifuged for 15 min. at 10,000 x g. A colorless preparation having a consistency of a paste was obtained which was transferred to a syringe.
Adult male Wistar rats were bred in twos in isolators and received Altromin™ and water ad libitum. At day 1, in the morning rats were subcutaneously injected once with 1 ml of the pharmaceutical composition described in Example 1 into the right flank ("Luer"-canulla No.12 with screw thread). Injections and NMR-measurements were carried with rats which had been previously subjected to inhalation anesthesia (77% N2, 22% O2 and 1 - 1,2% Isofluran™) .
At day 1, in the morning (after the formulation had been injected) and in the afternoon, respectively, as well as at days 4, 13, 22, 29, 36 and 43 the following NMR-measurements were carried out: The amount of Fludarabin monophosphate (FLAMP) at the site of injection was determined by ^19F-MRS and the volume and the contrast intensity of the drug depot was measured by MRT.
A 1,5-T whole body tomograph(Magnetom Vision Plus, Siemens AG, Erlangen, Germany) was used for the NMR-measurements. For both, the ^19F-MRS and the ^1H-imaging a volume resonator which had been constructed by the DKFZ (resonance frequency: 63,6 MHz (^1H) , 59,9 MHz (^19F) with an inner diameter of 8.4 cm was used which served as transmitting- and receiving coil.
After the rats had been positioned (subcutaneous liposome depot in the middle of the resonator) the volume resonator was manually tuned to the ^1H resonance frequency. After "Shim" (optimization of field homogeneity) by use of the ^1H-tissue water resonance line and subsequent tuning of the coil to the ^19F resonance frequency the ^19F spectra were recorded. The reading sequence comprised a simple non-layer-specific pulsed excitation with subsequent recording of 1024 readings in 51.2 ms corresponding to the fast T2-decay of the FID. The recording period of TA = 33:21 min. resulted from a repetition time TR = 100 ms and a number of NEX = 20000 excitations.
In order to get a reference for the chemical shift and the signal intensity of FLAMP a 0.5 ml reference solution containing 400 mM NaF was applied to the middle of the underside of the volume resonator with the resonance of this solution being at about -40 ppm (with reference to TFA). The follow-up editing of the spectra was carried out by use of the software LUISE which is implemented to the tomograph. […] The relation of the integrals of the resonances of FLAMP to NaF served as a reference value for the individual readings. ^1H-imaging with high resolution was carried with a T1-weighted 3D-gradient-echo-method (3D-FLASH) with lipid saturation (parameters used for measurements: TR = 45 ms; TE = 11 ms; α = 30; FOV = 50 mm; matrix-size = 128 x 128; period of acquisition for the individual readings: 15,36 ms). Multiple transverse layer images of the liposome depots were recorded with layers having an actual thickness of 2, 1- and 0,4 mm, respectively. […]

[3] = Subcutaneous injection of FLAMP solution (control): 19F MRS in vivo at the site of injection; design: species or system rat
Description: Subcutaneous injection of 34 mcmol FLAMP, along with 0.5 mcmol Gd-DTPA, as a 1 ml-solution in an adult male rat, 19F MRS in vivo at the site of injection. Relative FLAMP signal (peak area of FLAMP / peak area of external NaF standard) versus time after injection.
as §1

[4] = course of plasma level corresponds to that after intravenous application; cited from earlier work

drug amounts injected still present at the site of injection ([2]; day 13 post injection, s.c. 1 ml liposome depot (Phospholipon, Fludara, Magnevist), 19F-NMR-spectroscopy) [%]	drug amounts injected still present at the site of injection ([2]; end of the experiment (day 43, six weeks), s.c. liposome depot) [%]	amounts of drug available for release, of the amounts initially injected ([2]; end of the period, about six weeks after subcutaneous injection of depot) [%]	time at which amount of FLAMP at the site of injection started to decrease continuously ([2]; s.c. liposome depot, 19F-MRS)	amounts of drug available for release, of the amounts initially injected ([2]; start of the period, about one week after subcutaneous injection of depot) [%]	19F MRS signal from the drug at the site of injection ([3]; after 24 hours, s.c. solution, 34 mcmoles FLAMP)	disappearance of MRS signals from the drug itself or indistinguishable metabolites ([3]; drug injected as a solution)	drop of 19F MRS signal from the drug ([3]; within 5 hours after s.c. injection of solution, 34 mcmoles FLAMP)	Molecule	contrast enhancement at the site of injection (1H-images, 24 adjacent 2 mm layers) ([1]; 85 min after s.c. injection of solution, 0.5 mcmol Gd-DTPA)	area of remaining contrast enhancement ([1]; 85 min after s.c. injection of solution, 0.5 mcmol Gd-DTPA, three adjacent layers)	contrast enhancement left at the site of administration ([1]; one and a half hours after subcutaneous injection of Gd-DTPA solution)	19F MRS signal from the drug at the site of injection ([3]; 8 min after s.c. injection of solution, 34 mcmoles FLAMP in 1 ml)	absorption after subcutaneous application [4]
–	–	–	–	–	–	–	–	gadolinium-DPTA [Gd-DTPA]	only a faint diffuse contrast enhancement was detectable in three adjacent layers	about 212 mm	Almost no contrast enhancement was left	–	–
70	10	12	About one week after injection	70	no longer detectable	disappear within a few hours	more than 90	Nc1nc(F)nc2c1ncn2[C@@H]1O[C@H](COP(=O)(O)O)[C@@H](O)[C@@H]1O [FLAMP, Fludarabin-5'-monophosphate]	–	–	–	about the same as on day 1 after injecting the depot preparation	immediately absorbed
